For the experiment, the system named is Human lymphocyte cell stock HPB-ALL. Briefly: XTT cell viability assay of apoptosis induction in HPB-ALL cells. The following applies: only methotrexate added, no anti-Fas antibody, FIG. 3. The experiment is classed as cell-based. On the procedure: Human lymphocyte cell stock HPB-ALL (cf. Morikawa, S., et al. (1978) Int. J. Cancer 21, 166-170) was cultured in RPMI 1640 medium containing 10% FCS (manufactured by Gibco B.R.L. Corporation) at 37° C., in the presence of 5% carbon dioxide gas for three days, and 50 μl of the culture (2.5×10^5 cells/50 μl) were dispensed into each well of a 96-well microplate (manufactured by Sumitomo Bakelite Co., Ltd.). Then, 50 μl of the RPMI medium containing methotrexate (manufactured by Sigma Chemical Company), and an anti-Fas antibody (CH11 or HFE7A, 0.001 mg/ml solution was serially diluted by three times) were added to each well, and was cultured at 37° C.
The cells in the plate to which CH11 was added as an anti-Fas antibody were kept to be cultured at 37° C. overnight. […] The plate was then incubated for 3 hours at 37° C., and the absorbance at 450 nm of each well was measured, to calculate cell viability, using the reducing power of the mitochondria as the index.
The viability of the cells in each well was calculated according to the following equation: […]
wherein “a” is the absorbance of a test well, “b” is the absorbance of a well with no cells and c is the absorbance of a well with no antibody added.
A general note: Formazan colour is commonly taken as a measure of viable cells.

Regarding `CN(Cc1cnc2nc(N)nc(N)c2n1)c1ccc(C(=O)N[C@@H](CCC(=O)O)C(=O)O)cc1` [methotrexate, Methotrexate], the “viability of the cells” value is given as “almost no change”.
